Laboratory results as given in US8114814B2, “Herbicide composition” (Kumiai Chemical Industry Co., Ltd., priority 2007, dated 2012).

What was measured:
Conditions in all cases: 28th day of the treatment
[1] = system: Cyperus serotinus Rottb.; experiment: Test for herbicidal effect by paddy soil treatment; format: in vivo
Source text: (§1) A paddy soil was filled in a plastic pot of 100 cm^2 and subjected to puddling. Thereinto were sowed seeds of Echinochloa oryzicola Vasing, Monochoria vaginalis (Burm. f.) Kunth, Schoenoplectus juncoides (Roxb.) Paila or Cyperus serotinus Rottb., after which water was filled at a depth of 3 cm. Each pot was placed in a greenhouse for raising, At a timing when the Echinochloa oryzicola Vasing reached about a two-leaf stage, a seedling of two-leaf stage rice (variety: Kinnanpuu) was transplanted into each pot at a depth of 2 cm. A wettable powder prepared in accordance with Formulation Example 2 was diluted with water based on the total sum of the active ingredients, and the dilution was dropped on the water surface of the pot. Then, the pot was allowed to stand for raising. The herbicidal effect of the wettable powder was examined at the 28th day of the treatment (the dropping of the dilution) in accordance with the standard of Table 4.

[2] = system: Echinochloa oryzicola Vasing; experiment: Test for herbicidal effect by paddy soil treatment; format: in vivo
Source text: as §1

[3] = system: Monochoria vaginalis (Burm. f.) Kunth; experiment: Test for herbicidal effect by paddy soil treatment; format: in vivo
Source text: as §1

[4] = system: Schoenoplectus juncoides (Roxb.) Paila; experiment: Test for herbicidal effect by paddy soil treatment; format: in vivo
Source text: as §1

[5] = system: Transplanted Rice; experiment: Test for herbicidal effect by paddy soil treatment: phytotoxicity to transplanted rice; format: in vivo, rice (variety: Kinnanpuu)
Source text: as §1, with “A wettable powder prepared in accordance with Formulation Example 2 was diluted with water based on the total sum of the active ingredients, and the dilution was dropped on the water surface of the pot.” left out

[6] = system: Direct seeding rice; experiment: Test for herbicidal effect by paddy foliage treatment: phytotoxicity to direct seeding rice; format: in vivo, rice (variety: Akebono)
Source text: A paddy soil was filled in a plastic pot of 100 cm^2 and subjected to puddling. Thereinto were sowed seeds of rice (variety: Akebono), Echinochloa crusgalli (L.) P. Beauv. Var. crus-galli, Leptochloa chinensis Nees., Monochoria vaginalis (Burm. f.) Kunth, or Fimbristylis miliacea Vahl, after which each plant was raised in a greenhouse in a drained treatment until the Echinochloa crus-galli (L.) P. Beauv. Var. crus-galli reached a two-leaf stage. […] 3 days after the spraying, water was filled at a depth of 3 cm. Then, the pot was allowed to stand for raising. The herbicidal effect of the wettable powder was examined at the 28th day of the treatment (the spraying of the dilution) in accordance with the standard of Table 4.

[7] = system: Echinochloa crusgalli (L.) P. Beauv. Var. crus-galli; experiment: Test for herbicidal effect by paddy foliage treatment; format: in vivo
Source text: (§2) A paddy soil was filled in a plastic pot of 100 cm^2 and subjected to puddling. Thereinto were sowed seeds of rice (variety: Akebono), Echinochloa crusgalli (L.) P. Beauv. Var. crus-galli, Leptochloa chinensis Nees., Monochoria vaginalis (Burm. f.) Kunth, or Fimbristylis miliacea Vahl, after which each plant was raised in a greenhouse in a drained treatment until the Echinochloa crus-galli (L.) P. Beauv. Var. crus-galli reached a two-leaf stage. At that timing, a wettable powder prepared in accordance with Formulation Example 2 was diluted with water based on the total sum of the active ingredients, and the dilution was sprayed at a rate of 20 liters/10 ares using a micro-sprayer (a product of OLYMPOS). 3 days after the spraying, water was filled at a depth of 3 cm. Then, the pot was allowed to stand for raising. The herbicidal effect of the wettable powder was examined at the 28th day of the treatment (the spraying of the dilution) in accordance with the standard of Table 4.

[8] = system: Fimbristylis miliacea Vahl; experiment: as above; format: in vivo
Source text: as §2

[9] = system: Leptochloa chinensis Nees.; experiment: as above; format: in vivo
Source text: as §2

[10] = system: Monochoria vaginalis (Burm. f.) Kunth; experiment: as above; format: in vivo
Source text: as §2

Row | SMILES | phytotoxicity index, Transplanted Rice ([5]; Dose 20 g a.i./10a) | herbicidal effect index, Cyperus serotinus ([1]; Dose 20 g a.i./10a) | herbicidal effect index, Echinochloa oryzicola ([2]; Dose 20 g a.i./10a) | herbicidal effect index, Monochoria vaginalis ([3]; Dose 20 g a.i./10a) | herbicidal effect index, Schoenoplectus juncoides ([4]; Dose 20 g a.i./10a) | phytotoxicity index, Direct seeding rice ([6]; Dose 20 g a.i./10a) | herbicidal effect index, Echinochloa crus-galli ([7]; Dose 20 g a.i./10a) | herbicidal effect index, Fimbristylis miliacea ([8]; Dose 20 g a.i./10a) | herbicidal effect index, Leptochloa chinensis ([9]; Dose 20 g a.i./10a) | herbicidal effect index, Monochoria vaginalis ([10]; Dose 20 g a.i./10a) | also measured
1 | COC(=O)c1ccccc1CS(=O)(=O)NC(=O)Nc1nc(OC)cc(OC)n1 [Bensulfuron-methyl, reference compound] | – | – | – | – | – | – | – | – | – | – | herbicidal effect index, Cyperus serotinus ([1]; Dose 1 g a.i./10a): 7 (Herbicidal effect or phytotoxicity of 70% to less than 80%); herbicidal effect index, Echinochloa oryzicola ([2]; Dose 1 g a.i./10a): 3 (Herbicidal effect or phytotoxicity of 30% to less than 40%); herbicidal effect index, Monochoria vaginalis ([3]; Dose 1 g a.i./10a): 8 (Herbicidal effect or phytotoxicity of 80% to less than 90%); herbicidal effect index, Schoenoplectus juncoides ([4]; Dose 1 g a.i./10a): 7 (Herbicidal effect or phytotoxicity of 70% to less than 80%)
2 | CC1(C)CC(SCc2ccccc2)=NO1 [Compound 1] | 1 (Herbicidal effect or phytotoxicity of 10% to less than 20%) | 2 (Herbicidal effect or phytotoxicity of 20% to less than 30%) | 8 (Herbicidal effect or phytotoxicity of 80% to less than 90%) | 4 (Herbicidal effect or phytotoxicity of 40% to less than 50%) | 6 (Herbicidal effect or phytotoxicity of 60% to less than 70%) | – | – | – | – | – | –
3 | CC1(C)CC(S(=O)(=O)Cc2c(OCC(F)(F)F)ccc(Cl)c2Cl)=NO1 [Compound 31] | 1 (Herbicidal effect or phytotoxicity of 10% to less than 20%) | 2 (Herbicidal effect or phytotoxicity of 20% to less than 30%) | 8 (Herbicidal effect or phytotoxicity of 80% to less than 90%) | 5 (Herbicidal effect or phytotoxicity of 50% to less than 60%) | 4 (Herbicidal effect or phytotoxicity of 40% to less than 50%) | 2 (Herbicidal effect or phytotoxicity of 20% to less than 30%) | 6 (Herbicidal effect or phytotoxicity of 60% to less than 70%) | 2 (Herbicidal effect or phytotoxicity of 20% to less than 30%) | 3 (Herbicidal effect or phytotoxicity of 30% to less than 40%) | 3 (Herbicidal effect or phytotoxicity of 30% to less than 40%) | –
4 | C#CCOc1ccc(Cl)c(Cl)c1CS(=O)(=O)C1=NOC(C)(C)C1 [Compound 33] | – | – | – | – | – | 1 (Herbicidal effect or phytotoxicity of 10% to less than 20%) | 7 (Herbicidal effect or phytotoxicity of 70% to less than 80%) | 3 (Herbicidal effect or phytotoxicity of 30% to less than 40%) | 6 (Herbicidal effect or phytotoxicity of 60% to less than 70%) | 6 (Herbicidal effect or phytotoxicity of 60% to less than 70%) | –
5 | CC1(C)CC(S(=O)(=O)Cc2c(OCC(F)F)ccc(Cl)c2Cl)=NO1 [Compound 34] | – | – | – | – | – | 2 (Herbicidal effect or phytotoxicity of 20% to less than 30%) | 5 (Herbicidal effect or phytotoxicity of 50% to less than 60%) | 4 (Herbicidal effect or phytotoxicity of 40% to less than 50%) | 3 (Herbicidal effect or phytotoxicity of 30% to less than 40%) | 5 (Herbicidal effect or phytotoxicity of 50% to less than 60%) | –
6 | CCOc1cc(Cl)c(CS(=O)(=O)C2=NOC(C)(C)C2)cc1Cl [Compound 54] | 1 (Herbicidal effect or phytotoxicity of 10% to less than 20%) | 1 (Herbicidal effect or phytotoxicity of 10% to less than 20%) | 8 (Herbicidal effect or phytotoxicity of 80% to less than 90%) | 5 (Herbicidal effect or phytotoxicity of 50% to less than 60%) | 2 (Herbicidal effect or phytotoxicity of 20% to less than 30%) | 2 (Herbicidal effect or phytotoxicity of 20% to less than 30%) | 7 (Herbicidal effect or phytotoxicity of 70% to less than 80%) | 2 (Herbicidal effect or phytotoxicity of 20% to less than 30%) | 6 (Herbicidal effect or phytotoxicity of 60% to less than 70%) | 4 (Herbicidal effect or phytotoxicity of 40% to less than 50%) | –
7 | Cc1ccc(NC(=O)NC(C)(C)c2ccccc2)cc1 [Daimuron, reference compound] | – | – | – | – | – | – | – | – | – | – | herbicidal effect index, Cyperus serotinus ([1]; Dose 150 g a.i./10a): 3 (Herbicidal effect or phytotoxicity of 30% to less than 40%); herbicidal effect index, Echinochloa oryzicola ([2]; Dose 150 g a.i./10a): 0 (Herbicidal effect (growth inhibition) or phytotoxicity of less that 10%); herbicidal effect index, Monochoria vaginalis ([3]; Dose 150 g a.i./10a): 2 (Herbicidal effect or phytotoxicity of 20% to less than 30%); herbicidal effect index, Schoenoplectus juncoides ([4]; Dose 150 g a.i./10a): 7 (Herbicidal effect or phytotoxicity of 70% to less than 80%)
8 | CCC(CC)Nc1c([N+](=O)[O-])cc(C)c(C)c1[N+](=O)[O-] [Pendimethalin, reference compound] | – | – | – | – | – | – | – | – | – | – | phytotoxicity index, Direct seeding rice ([6]; Dose 80 g a.i./10a): 1 (Herbicidal effect or phytotoxicity of 10% to less than 20%); herbicidal effect index, Echinochloa crus-galli ([7]; Dose 80 g a.i./10a): 5 (Herbicidal effect or phytotoxicity of 50% to less than 60%); herbicidal effect index, Fimbristylis miliacea ([8]; Dose 80 g a.i./10a): 3 (Herbicidal effect or phytotoxicity of 30% to less than 40%); herbicidal effect index, Leptochloa chinensis ([9]; Dose 80 g a.i./10a): 5 (Herbicidal effect or phytotoxicity of 50% to less than 60%); herbicidal effect index, Monochoria vaginalis ([10]; Dose 80 g a.i./10a): 2 (Herbicidal effect or phytotoxicity of 20% to less than 30%)
9 | CCOC(=O)c1cnn(C)c1S(=O)(=O)NC(=O)Nc1nc(OC)cc(OC)n1 [Pyrazosulfuron-ethyl, reference compound] | – | – | – | – | – | – | – | – | – | – | phytotoxicity index, Direct seeding rice ([6]; Dose 3 g a.i./10a): 1 (Herbicidal effect or phytotoxicity of 10% to less than 20%); herbicidal effect index, Echinochloa crus-galli ([7]; Dose 3 g a.i./10a): 2 (Herbicidal effect or phytotoxicity of 20% to less than 30%); herbicidal effect index, Fimbristylis miliacea ([8]; Dose 3 g a.i./10a): 8 (Herbicidal effect or phytotoxicity of 80% to less than 90%); herbicidal effect index, Leptochloa chinensis ([9]; Dose 3 g a.i./10a): 0 (Herbicidal effect (growth inhibition) or phytotoxicity of less that 10%); herbicidal effect index, Monochoria vaginalis ([10]; Dose 3 g a.i./10a): 6 (Herbicidal effect or phytotoxicity of 60% to less than 70%)
10 | COCc1cccc(C(O)c2nc(OC)cc(OC)n2)c1NS(=O)(=O)C(F)F (stereo not shown) [Pyrimisulfan, reference compound] | – | – | – | – | – | – | – | – | – | – | phytotoxicity index, Transplanted Rice ([5]; Dose 1 g a.i./10a): 1 (Herbicidal effect or phytotoxicity of 10% to less than 20%); herbicidal effect index, Cyperus serotinus ([1]; Dose 1 g a.i./10a): 9 (Herbicidal effect or phytotoxicity of 90% to less than 100%); herbicidal effect index, Echinochloa oryzicola ([2]; Dose 1 g a.i./10a): 6 (Herbicidal effect or phytotoxicity of 60% to less than 70%); herbicidal effect index, Monochoria vaginalis ([3]; Dose 1 g a.i./10a): 6 (Herbicidal effect or phytotoxicity of 60% to less than 70%); herbicidal effect index, Schoenoplectus juncoides ([4]; Dose 1 g a.i./10a): 9 (Herbicidal effect or phytotoxicity of 90% to less than 100%)
